Assay results taken from patent US12612424B2, “HPK1 inhibitors and uses thereof” (Regor Pharmaceuticals, Inc., priority 2019, dated 2026).
Like-named read-outs stand apart in the source and are kept apart here.

How the values were obtained:
HPK1 = HPK1 (Homo sapiens, UniProt Q92918); test: HPK1 biochemical assay (ADP-GLO Kinase Assay)
How it was run: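 HPK1 (0.6 ng/μL final) activity was followed with MBP substrate and 10 μM ATP in Tris pH 7.5/MgCl2/BSA/DTT buffer, measured by ADP-Glo luminescence. Compounds were tested as 3-fold dilutions from 10 μM. IC50 came from a three-parameter logistic fit, with inhibition normalised to high/low controls.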

JAK3 = biological target: T1, JAK3 (Homo sapiens, UniProt P52333); test: JAK3 biochemical assay (ADP-GLO Kinase Assay); details: for JAKs/HPK1 IC50 Ratio, B* / JAKs/HPK1 IC50 Ratio, N*: ratio of JAK3 IC50 to HPK1 IC50; for JAKs/HPK1 IC50 Ratio, B*: first testing facility; for JAKs/HPK1 IC50 Ratio, N*: second testing facility
T1 construct: purchased Thermo fisher PV3855
T1 sequence (P52333 781-1124 limits assumed): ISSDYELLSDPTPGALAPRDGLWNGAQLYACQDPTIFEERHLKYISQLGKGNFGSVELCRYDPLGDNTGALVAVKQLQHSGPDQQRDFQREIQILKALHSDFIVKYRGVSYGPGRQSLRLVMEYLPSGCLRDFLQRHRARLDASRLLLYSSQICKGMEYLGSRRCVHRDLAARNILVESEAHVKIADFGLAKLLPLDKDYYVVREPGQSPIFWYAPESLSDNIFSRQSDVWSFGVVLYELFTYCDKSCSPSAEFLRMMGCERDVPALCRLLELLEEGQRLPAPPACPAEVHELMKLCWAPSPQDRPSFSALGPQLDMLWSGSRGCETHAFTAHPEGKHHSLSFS
How it was run: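 Human JAK3 (0.78 ng) with 0.2 μg/μL Poly(E4Y1) and 4 μM ATP in 40 mM Tris pH 7.5, 20 mM MgCl2, 0.1 mg/ml BSA, 50 μM DTT, 1% DMSO; 60 min at 25 °C. ADP formed read by ADP-Glo luminescence. 10-dose 3-fold series from 10 μM; IC50 by three-parameter logistic fit.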

[1] = B*: testing performed in a first testing facility, read-out: HPK1 IC50 (nM) Relative, B*
[2] = B*: testing performed in a first testing facility, read-out: JAK3 IC50 (nM) Relative, B*
[3] = N*: testing performed in a second testing facility, read-out: HPK1 IC50 (nM) Relative, N*
[4] = N*: testing performed in a second testing facility, read-out: JAK3 IC50 (nM) Relative, N*

HPK1, sequence (Q92918 whole entry): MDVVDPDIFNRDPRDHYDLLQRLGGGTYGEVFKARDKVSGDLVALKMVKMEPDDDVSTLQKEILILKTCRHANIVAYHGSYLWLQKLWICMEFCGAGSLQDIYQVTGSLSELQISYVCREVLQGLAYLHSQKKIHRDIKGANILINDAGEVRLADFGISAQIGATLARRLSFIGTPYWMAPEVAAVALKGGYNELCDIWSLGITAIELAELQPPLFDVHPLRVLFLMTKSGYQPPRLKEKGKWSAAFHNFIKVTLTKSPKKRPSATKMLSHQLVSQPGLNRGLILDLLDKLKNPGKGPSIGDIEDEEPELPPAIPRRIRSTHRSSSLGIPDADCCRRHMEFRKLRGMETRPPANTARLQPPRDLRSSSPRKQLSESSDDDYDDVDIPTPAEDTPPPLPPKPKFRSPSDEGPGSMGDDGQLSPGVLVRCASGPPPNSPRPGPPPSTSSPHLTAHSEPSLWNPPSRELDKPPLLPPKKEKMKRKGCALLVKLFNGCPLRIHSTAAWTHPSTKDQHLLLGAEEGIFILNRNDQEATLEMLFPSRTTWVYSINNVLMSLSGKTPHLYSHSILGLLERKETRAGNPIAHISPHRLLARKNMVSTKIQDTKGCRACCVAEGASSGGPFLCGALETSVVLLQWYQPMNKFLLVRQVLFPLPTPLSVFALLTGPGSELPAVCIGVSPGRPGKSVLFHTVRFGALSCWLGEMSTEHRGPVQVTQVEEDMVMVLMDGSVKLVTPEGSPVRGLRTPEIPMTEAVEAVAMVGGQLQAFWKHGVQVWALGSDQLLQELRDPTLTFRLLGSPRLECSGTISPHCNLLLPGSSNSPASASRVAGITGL

IC50 (HPK1; [1]) [nM] | IC50 (JAK3; [2]) [nM] | JAKs/HPK1 IC50 Ratio, B* (JAK3) | IC50 (HPK1; [3]) [nM] | IC50 (JAK3; [4]) [nM] | JAKs/HPK1 IC50 Ratio, N* (JAK3) | Compound
≤ 100 | 500 to 1000 | 117 |  |  |  | COc1cc2c(cc1Nc1ncc(Cl)c(-n3cc(C(C)C(=O)O)c4ccccc43)n1)CN(C)CC2 (centres unmarked) [Example 142]
≤ 100 | > 1000 | >243 |  |  |  | COc1cc2c(cc1Nc1ncc(Cl)c(-n3cc(CC(=O)OC(C)C)c4ccccc43)n1)CN(C)CC2 [Example 130, Isopropyl 2-(1-(5-chloro-2-((6-methoxy-2-methyl-1,2,3,4-tetrahydroisoquinolin-7-yl)amino)pyrimidin-4-yl)-1H-indol-3-yl)acetate]
≤ 100 | 100 to 500 | 520 |  |  |  | COc1cc2c(cc1Nc1ncc(Cl)c(-n3cc(CC(=O)O)c4ccc(F)cc43)n1)CN(C)CC2 [Example 139]
≤ 100 | > 1000 | 800 |  |  |  | CNC(=O)C1CN(c2nc(Nc3cc4c(cc3OC)CCN(C)C4)ncc2Cl)c2ccccc21 (centres unmarked) [Example 97, 1-(5-Chloro-2-((6-methoxy-2-methyl-1,2,3,4-tetrahydroisoquinolin-7-yl)amino)pyrimidin-4-yl)-N-methylindoline-3-carboxamide]
≤ 100 | 500 to 1000 | 510 |  |  |  | COc1cc2c(cc1Nc1ncc(Cl)c(-c3cn(CC(=O)O)c4ccccc34)n1)CN(C)CC2 [Example 161]
≤ 100 | > 1000 | >1500 |  |  |  | COc1cc2c(cc1Nc1ncc(Cl)c(N3CCc4ccc(C(F)F)cc43)n1)CN(C)CC2 [Example 91, N-(5-chloro-4-(6-(difluoromethyl)indolin-1-yl)pyrimidin-2-yl)-6-methoxy-2-methyl-1,2,3,4-tetrahydroisoquinolin-7-amine]
≤ 100 | 500 to 1000 | 540 |  |  |  | CONC(=O)C1CN(c2nc(Nc3cc4c(cc3OC)CCN(C)C4)ncc2Cl)c2ccccc21 (centres unmarked) [Example 103, 1-(5-Chloro-2-((6-methoxy-2-methyl-1,2,3,4-tetrahydroisoquinolin-7-yl)amino)pyrimidin-4-yl)-N-methoxyindoline-3-carboxamide]
≤ 100 |  |  | ≤ 100 | > 1000 | 571 | COc1cc2c(cc1Nc1ncc(Cl)c(-n3cnc4ccccc43)n1)CN(C)CC2 [Example 9, N-(4-(1H-benzo[d]imidazol-1-yl)-5-chloropyrimidin-2-yl)-6-methoxy-2-methyl-1,2,3,4-tetrahydroisoquinolin-7-amine]
≤ 100 | ≤ 100 | 120 |  |  |  | COc1cc2c(cc1Nc1ncc(Cl)c(N3CC(C)(C(N)=O)c4ccccc43)n1)CN(C)CC2 (centres unmarked) [Example 120, 1-(5-Chloro-2-((6-methoxy-2-methyl-1,2,3,4-tetrahydroisoquinolin-7-yl)amino)pyrimidin-4-yl)-3-methylindoline-3-carboxamide]
≤ 100 | > 1000 | 2200 |  |  |  | COc1ccc2c(c1)N(c1nc(Nc3cc4c(cc3OC)CCN(C)C4)ncc1Cl)CC2C(=O)O (centres unmarked) [Example 107, 1-(5-Chloro-2-((6-methoxy-2-methyl-1,2,3,4-tetrahydroisoquinolin-7-yl)amino)pyrimidin-4-yl)-6-methoxyindoline-3-carboxylic acid]
≤ 100 | ≤ 100 | 90 |  |  |  | COc1cc2c(cc1Nc1ncc(Cl)c(N3CC(C)(CC(=O)O)c4ccccc43)n1)CN(C)CC2 (centres unmarked) [Example 146]
≤ 100 | ≤ 100 | 209 |  |  |  | COc1cc2c(cc1Nc1ncc(Cl)c(N3CC(C)(CC(=O)O)c4ccccc43)n1)CN(C)CC2 (single isomer, unassigned) [Example 148]
≤ 100 |  |  | ≤ 100 | > 1000 | 642 | COc1cc2c(cc1Nc1ncc(Cl)c(-n3ccc4ccccc43)n1)CN(C)CC2 [Example 2, N-(5-chloro-4-(1H-indol-1-yl)pyrimidin-2-yl)-6-methoxy-2-methyl-1,2,3,4-tetrahydroisoquinolin-7-amine]
